Results taken from patent US20140248291A1, “Modulation of Cellular Migration” (THE UAB RESEARCH FOUNDATION, priority 2011, published 2014).

Key:
rat B2R [1] = molecular target: T1, rat B2R (Rattus norvegicus, UniProt P25023); design: expressed in transfected cells; host or cells: Cos-7 cells; details: Cos-7 cells expressing the rat receptor, n=3; read-out: KI, displacement of [3H]-BK binding; cited from earlier work
T1 sequence (P25023 1-396): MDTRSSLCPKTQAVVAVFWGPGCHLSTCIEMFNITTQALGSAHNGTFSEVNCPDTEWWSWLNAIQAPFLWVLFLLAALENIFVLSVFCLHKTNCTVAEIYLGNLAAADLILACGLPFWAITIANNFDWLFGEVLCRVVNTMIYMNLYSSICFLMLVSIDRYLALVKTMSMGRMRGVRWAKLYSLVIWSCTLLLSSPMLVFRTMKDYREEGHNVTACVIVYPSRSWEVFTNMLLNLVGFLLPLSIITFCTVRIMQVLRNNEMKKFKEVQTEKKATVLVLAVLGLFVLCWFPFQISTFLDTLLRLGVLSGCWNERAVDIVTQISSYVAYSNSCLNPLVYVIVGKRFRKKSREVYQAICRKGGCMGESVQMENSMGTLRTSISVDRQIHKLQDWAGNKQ

rat B2R [2] = molecular target: T1, rat B2R; details: n=3, read-out: IC50, BK-induced [3H]-IP3 formation; cited from earlier work
rat B1 BK receptor = molecular target: T2, rat B1 BK receptor (Rattus norvegicus, UniProt P97583); details: cited from earlier work
T2 sequence (P97583 1-337): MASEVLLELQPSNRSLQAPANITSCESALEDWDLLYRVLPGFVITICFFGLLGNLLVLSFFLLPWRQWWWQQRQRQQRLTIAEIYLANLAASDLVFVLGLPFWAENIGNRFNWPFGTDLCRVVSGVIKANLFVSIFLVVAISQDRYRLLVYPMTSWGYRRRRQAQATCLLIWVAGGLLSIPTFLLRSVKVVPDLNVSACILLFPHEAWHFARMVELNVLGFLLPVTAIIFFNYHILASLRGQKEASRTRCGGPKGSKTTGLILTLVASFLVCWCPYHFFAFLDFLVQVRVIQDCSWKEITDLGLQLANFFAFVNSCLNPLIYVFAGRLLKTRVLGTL

[3] = in vivo; cited from earlier work
B2R = details: NG108-15 cells, n=3; read-out: KI, displacement of [3H]-BK binding; cited from earlier work
D54-MG-GFP cells = assay: time-lapse motility assay in BK concentration gradient, D54-MG-GFP; assay type: cell-based, human; details: for cells moved towards increasing BK concentration: BK gradient in presence of antagonist, cells moving in random fashion; for directionality of movement: antagonist in addition to BK
Method: Time-lapse studies were performed using a stably transfected daughter cell line from D54-MG cells that express EGFP, previously generated in the lab (Habela et al., 2009) and U251-EGFP cell line to visualize cells as they migrate. Increased motility was tested using an Ibidi chemotaxis chamber that is commercially available from Ibidi Scientific (Ibidi GmbH, Martinsried, Germany), and which has been used in previous studies (Kronlage et al., 2010; Fabian et al., 2010) with D54-EGFP MG cells seeded. Liquid chemical gradients were established in the μ-channel of the μ-chamber as follows: the dye Patent Blue V Blue Sodium Salt (1 mg/ml in medium) was mixed with equivolume of medium+/−1 mM stock of BK+/−1 mM stocks of HOE-140 or BZ; half of the volume was loaded in the well at one side of the μ-channel, and the identical volume was then aspirated from the well on the other side of the μ-channel. This created concentration gradient easily visualized by the dye. 12-15 different positions along the concentration gradient were imaged every 5 minutes over 5 hours period on a Zeiss Axiovert 200M system equipped with a Zeiss micro-incubation chamber that maintains cells at constant temperature (37° C.) and 95%/5% CO2/O2 for extended periods of time. We obtained images from different sections using 20× objective and FITC filter, along with DIC images. 500× neutral density filters and capture images using Axiovision software and a digital Axiocam HR 1 megapixel camera in 2*2 binning mode was used. Data was analyzed using the imaging tools provided by National Institutes of Health Image J and Tracking, and Chemotaxis and Migration Tool plugins (Jacobelli et al., 2009; Coller et al., 2009; Kronlage et al., 2010; Fabian et al., 2010) by randomly selecting 15 cells for each field of view. Cells treated with BK+/−antagonists were compared with controls where only dye was added. These experiments were repeated in triplicates.
As calcium dynamics are often correlated with cell motility time-lapse studies were performed using a stably transfected daughter cell line from D54-MG cells that expresses GFP to visualize cells as they migrate (FIG. 3A). Increased motility was tested in μ-slides in which a BK concentration gradient can be maintained.

BK = BK (Homo sapiens, UniProt P30411); details: cited from earlier work
Chain of BK (P30411 whole entry, species assumed): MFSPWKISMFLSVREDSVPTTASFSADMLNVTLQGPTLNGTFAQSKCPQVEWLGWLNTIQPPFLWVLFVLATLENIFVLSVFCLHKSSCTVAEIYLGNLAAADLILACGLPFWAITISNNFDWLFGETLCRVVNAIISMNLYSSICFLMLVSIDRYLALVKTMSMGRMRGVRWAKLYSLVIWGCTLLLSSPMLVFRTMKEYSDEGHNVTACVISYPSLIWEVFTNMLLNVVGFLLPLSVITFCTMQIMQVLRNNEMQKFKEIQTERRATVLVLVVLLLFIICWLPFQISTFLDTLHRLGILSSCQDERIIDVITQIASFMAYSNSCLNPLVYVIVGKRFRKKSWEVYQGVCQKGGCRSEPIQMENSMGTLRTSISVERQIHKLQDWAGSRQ

D54-EGFP tumor cells = assay: tumor invasion/growth in organotypic mouse brain slice cultures; assay type: cell-based, human
Method: Slice cultures were prepared from brains of P13-P16 BALB/c scid mice (Jackson Laboratory). Coronal brain sections 300 μm thick were sliced with a Vibrotome 3000 sectioning system in ice cold artificial saline. Brain slices were transferred into filter inserts with a polycarbonate membrane (Falcon, BD, pore size 0.45 μm). Filters were placed into 6-well plates containing 1 ml of DMEM supplemented with 8% FCS, 0.2 mM glutamine, 100 U/mL penicillin, and […] streptomycin. After overnight repose the medium was changed to cultivation medium containing 25% heat-inactivated horse serum, 50 mM sodium bicarbonate, 2% glutamine, 25% Hank's balanced salt solution, […] insulin (all from Gibco), 2.46 mg/mL glucose (Sigma Aldrich), 0.8 mg/mL vitamin C (Sigma Aldrich), 100 U/mL penicillin, […] streptomycin (Sigma Aldrich), and 5 mM Tris in DMEM (Gibco). At day 3 of culturing approximately 3000 D54-EGFP tumor cells in a volume of 1 μl were implanted per organotypic brain slice. Cells were injected using a 1 μl hemilton syringe mounted to a micromanipulator. The cell suspension was slowly injected over 30 seconds and subsequently the syringe was slowly pulled out. Gliomas were always inoculated into the right cortex. […] The tumor area was determined using ImageJ software (available from rsbweb.nih.gov). Tumor growth was calculated between day 4 and day 11 of culturing.

CN(C)CCN(C)CCNC(=O)[C@@H]1CCCN1S(=O)(=O)c1ccc(NNC(=S)NC(c2ccccc2)c2ccccc2)c([N+](=O)[O-])c1 [Bradyzide]
Ki (rat B2R [1]): 0.89 nM
IC50 (rat B2R [2]): 11.6 ± 1.4 nM
interaction with rat B1 BK receptor (rat B1 BK receptor): does not interact
oral availability [3]: orally available
Ki (B2R): 0.51 nM
cells moved towards increasing BK concentration (D54-MG-GFP cells): 6/15
directionality of movement (D54-MG-GFP cells): failed to show any directionality of movement

N=C(N)NCCCC(NC(=O)[C@H](N)CCCNC(=N)N)C(=O)N1CCC[C@H]1C(=O)N1C[C@H](O)C[C@H]1C(=O)NCC(=O)N[C@@H](Cc1cccs1)C(=O)N[C@@H](CO)C(=O)N1Cc2ccccc2C[C@@H]1C(=O)N1C2CCCCC2C[C@H]1C(=O)N[C@H](CCCNC(=N)N)C(=O)O (stereo partly drawn) [HOE-140, D-Arg-[Hyp^3, Thi^5, D-Tic^7, Oic^8]bradykinin]
potency relative to D-Arg-[Hyp^2, Thi^5,8, D-Phe^7]BK (BK): two to three orders of magnitude more potency
tumor growth day 4 to day 11 (D54-EGFP tumor cells; BK and HOE-140 compared to control slices or HOE-140 alone): did not differ significantly
migration (spread) of GFP-expressing tumor cells (D54-EGFP tumor cells; HOE-140 (5 μM) and BK (1 μM) compared to BK alone): significantly reduced migration
cells moved towards increasing BK concentration (D54-MG-GFP cells): 8/15
directionality of movement (D54-MG-GFP cells): failed to show any directionality of movement
